From US9499509B2, “Dihydrochalcone derivatives and their use as antibiotic agents” (UNIVERSITÉ DU QUÉBEC À CHICOUTIMI, priority 2012, dated 2016)
In brackets after ≈: the same amount, converted by molar mass.

How the values were obtained:
MRSA strains = assay: Antibiotic assay (absorption 660 nm, Example 2), MRSA strains; assay type: cell-based, Staphylococcus aureus
Procedure: (§1) Antibiotic agents. Gentamicin sulfate was provided by Calbiochem. Chloramphenicol was provided by Sigma-Aldrich.
(§2) Antibiotic assay. […] The bacteria strains were inoculated in nutrients broth. […] All bacteria were plated in nutrients broth at a concentration of 450 000 bacteria/m L.
(§3) Compounds IV to XXI were diluted in dimethylsulfoxide. […] The compounds were tested at 8 different concentrations.
(§4) Each well contained: 100 μL of bacteria, 100 μL of the compounds tested. The plates were incubated at 37° C. for 6 h. The absorption was read using a Varioskan flash multimode Reader™ (Thermo Scientific) at 660 nm.
(§5) MRSA. Ten (10) strains of MRSA obtained as described above were tested along with an S. aureus wild type (WT) strain (ATCC 25923).

[1] = test system: S. aureus wild type strain (ATCC 25923); assay: Antibiotic assay (absorption 660 nm, Example 2), S. aureus wild type; assay type: cell-based, Staphylococcus aureus; details: for MIC: S. aureus WT (ATCC 25923); for S. aureus WT ATCC 25923 (toxicity on bacteria): Table 7, same values as MIC of Table 6
Procedure: as §1, §2, §3, §4, §5

WS-1 cell lines = assay: Cytotoxicity assay on WS-1 (Example 2); assay type: cell-based; parameters: unit not given here; details: Table 7; WS-1, 48 h
Procedure: Cytotoxicity assay. […] The WS-1 cell lines were provided by ATCC. […] The compounds tested were then added at 8 different concentrations. […] In Table 7, the therapeutic indexes of compounds IV to XXI are presented.

Row | SMILES | MIC (MRSA strains; MRSA 1) [µM] | MIC (MRSA strains; MRSA 2) [µM] | MIC (MRSA strains; MRSA 3) [µM] | MIC (MRSA strains; MRSA 4) [µM] | MIC (MRSA strains; MRSA 5) [µM] | MIC (MRSA strains; MRSA 6) [µM] | MIC (MRSA strains; MRSA 7) [µM] | MIC (MRSA strains; MRSA 8) [µM] | MIC (MRSA strains; MRSA 9) [µM] | MIC (MRSA strains; MRSA 10) [µM] | MIC [1] [µM] | S. aureus WT ATCC 25923 (toxicity on bacteria) [1] | WS-1 (toxicity on normal cells, fibroblast) (WS-1 cell lines)
1 | O=C(CCc1ccccc1)c1c(O)cc(O)c2c1O[C@@H](c1ccc(O)cc1)CC2 [VI] | 3.5 ± 0.1 (≈ 1.37 µg/mL) | 2.9 ± 0.2 (≈ 1.13 µg/mL) | 3.8 ± 0.3 (≈ 1.48 µg/mL) | 5.2 ± 0.4 (≈ 2.03 µg/mL) | 4.9 ± 0.6 (≈ 1.91 µg/mL) | 14.2 ± 0.9 (≈ 5.54 µg/mL) | 3.4 ± 0.2 (≈ 1.33 µg/mL) | 3.8 ± 0.3 (≈ 1.48 µg/mL) | 4.7 ± 0.2 (≈ 1.84 µg/mL) | 4.65 ± 0.06 (≈ 1.82 µg/mL) | 2.7 ± 0.3 (≈ 1.05 µg/mL) | 2.7 ± 0.3 | >50
2 | O=C(CCc1ccccc1)c1c(O)cc(O)c2c1O[C@H](c1ccc(O)cc1)CC2 [V] | 4.1 ± 0.1 (≈ 1.6 µg/mL) | 2.58 ± 0.10 (≈ 1.01 µg/mL) | 3.8 ± 0.2 (≈ 1.48 µg/mL) | 4.7 ± 0.4 (≈ 1.84 µg/mL) | 4.4 ± 0.1 (≈ 1.72 µg/mL) | 6.9 ± 0.4 (≈ 2.69 µg/mL) | 3.0 ± 0.2 (≈ 1.17 µg/mL) | 3.8 ± 0.4 (≈ 1.48 µg/mL) | 6.2 ± 0.4 (≈ 2.42 µg/mL) | 5.0 ± 0.3 (≈ 1.95 µg/mL) | 2.5 ± 0.2 (≈ 0.976 µg/mL) | 2.5 ± 0.2 | >50
3 | COc1cc(O)c(C(=O)CCc2ccc(O)cc2)c2c1CC[C@H](c1ccc(O)cc1)O2 [XII] | 0.55 ± 0.07 (≈ 0.231 µg/mL) | 0.65 ± 0.03 (≈ 0.273 µg/mL) | 1.10 ± 0.07 (≈ 0.463 µg/mL) | 0.64 ± 0.02 (≈ 0.269 µg/mL) | 0.60 ± 0.01 (≈ 0.252 µg/mL) | 0.76 ± 0.04 (≈ 0.32 µg/mL) | 0.57 ± 0.06 (≈ 0.24 µg/mL) | 0.641 ± 0.01 (≈ 0.27 µg/mL) | 0.86 ± 0.03 (≈ 0.362 µg/mL) | 0.7 ± 0.1 (≈ 0.294 µg/mL) | 0.58 ± 0.02 (≈ 0.244 µg/mL) | 0.58 ± 0.02 | >50
4 | O=C(CCc1ccccc1)c1c(O)cc2c(c1O)CC(O)C(c1ccc(O)cc1)O2 (centres unmarked) [XIV] | 21.9 ± 0.2 (≈ 8.9 µg/mL) | 25 ± 2 (≈ 10.2 µg/mL) | 18 ± 1 (≈ 7.32 µg/mL) | 22 ± 2 (≈ 8.94 µg/mL) | 20 ± 2 (≈ 8.13 µg/mL) | 20 ± 3 (≈ 8.13 µg/mL) | 18.5 ± 0.4 (≈ 7.52 µg/mL) | 23.4 ± 1.0 (≈ 9.51 µg/mL) | 20 ± 2 (≈ 8.13 µg/mL) | 11.4 ± 0.6 (≈ 4.63 µg/mL) | 10.9 ± 0.6 (≈ 4.43 µg/mL) | 10.9 ± 0.6 | >50
5 | COc1cc(O)c(C(=O)CCc2ccc(O)cc2)c2c1CC[C@@H](c1ccc(O)cc1)O2 [XI] | <0.39 | <0.39 | <0.39 | <0.39 | <0.39 | <0.39 | <0.39 | <0.39 | <0.39 | <0.39 | <0.39 | <0.39 | >50

Now from value to molecule, other results behind:

Row | MIC (MRSA strains; MRSA 1) [µM] | MIC (MRSA strains; MRSA 2) [µM] | MIC (MRSA strains; MRSA 3) [µM] | MIC (MRSA strains; MRSA 4) [µM] | MIC (MRSA strains; MRSA 5) [µM] | MIC (MRSA strains; MRSA 6) [µM] | MIC (MRSA strains; MRSA 7) [µM] | MIC (MRSA strains; MRSA 8) [µM] | MIC (MRSA strains; MRSA 9) [µM] | MIC (MRSA strains; MRSA 10) [µM] | MIC [1] [µM] | SMILES | S. aureus WT ATCC 25923 (toxicity on bacteria) [1] | WS-1 (toxicity on normal cells, fibroblast) (WS-1 cell lines)
6 | 12 ± 1 (≈ 4.88 µg/mL) | 14 ± 1 (≈ 5.69 µg/mL) | 15.9 ± 0.8 (≈ 6.46 µg/mL) | 15 ± 1 (≈ 6.1 µg/mL) | 11.5 ± 0.4 (≈ 4.67 µg/mL) | 11 ± 2 (≈ 4.47 µg/mL) | 7.5 ± 0.4 (≈ 3.05 µg/mL) | 9.5 ± 1.0 (≈ 3.86 µg/mL) | 13 ± 2 (≈ 5.28 µg/mL) | 12 ± 1 (≈ 4.88 µg/mL) | 9.9 ± 0.7 (≈ 4.02 µg/mL) | O=C(CCc1ccccc1)c1c(O)cc(O)c2c1OC(c1ccc(O)cc1)C(O)C2 (centres unmarked) [XVIII] | 9.9 ± 0.7 | >50
7 | 13 ± 1 (≈ 5.28 µg/mL) | 12 ± 1 (≈ 4.88 µg/mL) | 16.7 ± 0.5 (≈ 6.79 µg/mL) | 15 ± 1 (≈ 6.1 µg/mL) | 5.1 ± 0.2 (≈ 2.07 µg/mL) | 6 ± 2 (≈ 2.44 µg/mL) | 8.2 ± 0.7 (≈ 3.33 µg/mL) | 10.2 ± 0.8 (≈ 4.15 µg/mL) | 17 ± 1 (≈ 6.91 µg/mL) | 17 ± 1 (≈ 6.91 µg/mL) | 13.0 ± 0.8 (≈ 5.28 µg/mL) | O=C(CCc1ccccc1)c1c(O)cc(O)c2c1OC(c1ccc(O)cc1)C(O)C2 (centres unmarked) [XVII] | 13.0 ± 0.8 | >50
8 | 24.3 ± 0.9 (≈ 9.88 µg/mL) | 27 ± 1 (≈ 11 µg/mL) | 29 ± 3 (≈ 11.8 µg/mL) | 22 ± 2 (≈ 8.94 µg/mL) | 18 ± 2 (≈ 7.32 µg/mL) | 18.9 ± 0.4 (≈ 7.68 µg/mL) | 20 ± 1 (≈ 8.13 µg/mL) | 17 ± 2 (≈ 6.91 µg/mL) | 30 ± 1 (≈ 12.2 µg/mL) | 7.8 ± 0.3 (≈ 3.17 µg/mL) | 13 ± 1 (≈ 5.28 µg/mL) | O=C(CCc1ccccc1)c1c(O)cc2c(c1O)CC(O)C(c1ccc(O)cc1)O2 (centres unmarked) [XV] | 13 ± 1 | >50
